Test results reported in publication PMC5782818 (Bioorganic & medicinal chemistry letters, 2017).

Tests used:
VMAT2 [1] = target: T1, VMAT2 (Rattus norvegicus, UniProt Q01827); test: Vesicular [^3H]DA uptake assay; format: biochemical
[2] = system: sucrose-maintained responding; conditions: rats; cited from earlier work
METH self-administration = conditions: rats; cited from earlier work
[3] = cited from earlier work
VMAT2 [4] = target: T1, VMAT2; conditions: cited from earlier work

T1 sequence (Q01827 whole entry): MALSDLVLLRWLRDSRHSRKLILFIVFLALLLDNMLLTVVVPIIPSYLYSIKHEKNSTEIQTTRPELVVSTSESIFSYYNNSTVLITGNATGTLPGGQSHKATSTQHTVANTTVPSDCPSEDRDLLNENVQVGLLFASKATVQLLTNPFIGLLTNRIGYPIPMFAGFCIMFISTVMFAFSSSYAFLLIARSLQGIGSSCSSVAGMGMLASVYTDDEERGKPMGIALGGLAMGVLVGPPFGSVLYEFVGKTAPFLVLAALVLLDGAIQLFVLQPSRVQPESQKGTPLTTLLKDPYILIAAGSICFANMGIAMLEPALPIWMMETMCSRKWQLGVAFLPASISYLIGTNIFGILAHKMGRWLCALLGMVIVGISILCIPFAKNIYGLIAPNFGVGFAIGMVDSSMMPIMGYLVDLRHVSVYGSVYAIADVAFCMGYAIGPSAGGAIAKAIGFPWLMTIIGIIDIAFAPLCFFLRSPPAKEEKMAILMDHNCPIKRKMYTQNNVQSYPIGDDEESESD

Compound: Cl.Cl.FCCOc1ccc(CCN2CCN(CCc3ccccc3Cl)CC2)cc1 [Compound 15f, 1-(2-chlorophenethyl)-4-(4-(2-fluoroethoxy)phenethyl)piperazine]
- fold less potent at VMAT2 than 15d (VMAT2 [1]): 32 fold

Compound: CN1[C@@H](CCc2ccccc2)CCC[C@H]1CCc1ccccc1 [lobelane]
- effect on sucrose-maintained responding [2]: without decreasing
- effect on METH self-administration (METH self-administration): dose-dependently decreased

Compound: CN1[C@@H](CC(=O)c2ccccc2)CCC[C@H]1C[C@H](O)c1ccccc1 [lobeline]
- side-effects in clinical trials [3]: bitter taste and nausea
- effect on DA uptake into synaptic vesicles via VMAT2 (VMAT2 [4]): inhibit
